Source: ChEMBL document CHEMBL3045294, “Synthesis, anticonvulsant and toxicity screening of thiazolylthiadiazole derivatives” (Med Chem Res, 2011)
Active and inactive are the calls of the source. The rule behind the calls is not given here.

Legend:
Mus musculus [1] = assay: (§1) Neurotoxicity in ip dosed Mus musculus albino (mouse) after 4 hr rotorod test; type: toxicity, organism-based; settings: in vivo, 4 h
Mus musculus [2] = assay: (§2) Neurotoxicity in ip dosed Mus musculus albino (mouse) after 0.5 hr rotorod test; type: toxicity, organism-based; settings: in vivo, 0.5 h
Mus musculus [3] = assay: Anticonvulsant activity in Mus musculus albino (mouse) assessed as protection against maximal electroshock-induced seizures at 300 mg/kg, ip after 4 hr; type: functional, organism-based; parameters: dose 300 mg/kg
Mus musculus [4] = assay: Anticonvulsant activity in ip dosed Mus musculus albino (mouse) assessed as protection against maximal electroshock-induced seizures after 0.5 hr; type: functional; settings: read-out: MED
Mus musculus [5] = assay: Anticonvulsant activity in Mus musculus albino (mouse) assessed as protection against subcutaneous pentylenetetrazol-induced seizures at 300 mg/kg, ip after 4 hr; type: functional, organism-based; parameters: dose 300 mg/kg
Mus musculus [6] = assay: Anticonvulsant activity in Mus musculus albino (mouse) assessed as protection against subcutaneous pentylenetetrazol-induced seizures at 300 mg/kg, ip after 0.5 hr; type: functional, organism-based; parameters: dose 300 mg/kg
Mus musculus [7] = assay: Protective index, ratio of TD50 for Mus musculus albino (mouse) to ED50 for Mus musculus albino (mouse) by subcutaneous pentylenetetrazol-induced seizures test; type: functional
[8] = as §1; type: toxicity, organism-based; settings: albino, in vivo
Mus musculus [9] = assay: Anticonvulsant activity in ip dosed Mus musculus albino (mouse) assessed as protection against subcutaneous pentylenetetrazol-induced seizures; type: functional
[10] = as §2; type: toxicity, organism-based; settings: albino, in vivo
Mus musculus [11] = assay: Anticonvulsant activity in ip dosed Mus musculus albino (mouse) assessed as protection against subcutaneous pentylenetetrazol-induced seizures after 0.5 hr; type: functional; settings: read-out: MED
Mus musculus [12] = assay: Anticonvulsant activity in ip dosed Mus musculus albino (mouse) assessed as protection against maximal electroshock-induced seizures after 4 hr; type: functional; settings: read-out: MED
Mus musculus [13] = assay: Anticonvulsant activity in ip dosed Mus musculus albino (mouse) assessed as protection against maximal electroshock-induced seizures; type: functional
Mus musculus [14] = assay: Hepatoxicity in Mus musculus albino (mouse) assessed as effect on alkaline phosphatase level in serum at 3 to 30 mg/kg, ip; type: toxicity, organism-based; parameters: dose 3-30 mg/kg, route intraperitoneal; settings: in vivo
Mus musculus [15] = assay: Hepatoxicity in Mus musculus albino (mouse) assessed as effect on SGPT level in serum at 3 to 30 mg/kg, ip; type: toxicity, organism-based; parameters: dose 3-30 mg/kg, route intraperitoneal; settings: in vivo
Mus musculus [16] = assay: Hepatoxicity in Mus musculus albino (mouse) assessed as effect on SGOT level in serum at 3 to 30 mg/kg, ip; type: toxicity, organism-based; parameters: dose 3-30 mg/kg, route intraperitoneal; settings: in vivo
Mus musculus [17] = organism: Mus musculus; assay: Protective index, ratio of TD50 for Mus musculus albino (mouse) to ED50 for Mus musculus albino (mouse) by maximal electroshock-induced seizures test; type: functional
Mus musculus [18] = assay: Anticonvulsant activity in ip dosed Mus musculus albino (mouse) assessed as protection against subcutaneous pentylenetetrazol-induced seizures after 4 hr; type: functional; settings: read-out: MED
Mus musculus [19] = assay: Anticonvulsant activity in Mus musculus albino (mouse) assessed as protection against maximal electroshock-induced seizures at 300 mg/kg, ip after 0.5 hr; type: functional, organism-based; parameters: dose 300 mg/kg

Structure (SMILES) | MTC (Mus musculus [1]) [mg/kg] | MTC (Mus musculus [2]) [mg/kg] | Activity (Mus musculus [3]) | minimal effective dose (Mus musculus [4]) [mg/kg] | Activity (Mus musculus [5]) | Activity (Mus musculus [6]) | Ratio TD50/ED50 (Mus musculus [7]) | MTD at 4 h [8] [mg/kg] | ED50 (Mus musculus [9]) [mg/kg] | MTD at 0.5 h [10] [mg/kg] | TD50 at 0.5 h [10] [mg/kg] | minimal effective dose (Mus musculus [11]) [mg/kg] | minimal effective dose (Mus musculus [12]) [mg/kg] | ED50 (Mus musculus [13]) [mg/kg] | Activity (Mus musculus [14]) | Activity (Mus musculus [15]) | Activity (Mus musculus [16]) | Ratio TD50/ED50 (Mus musculus [17]) | minimal effective dose (Mus musculus [18]) [mg/kg] | Activity (Mus musculus [19])
Brc1ccc(-c2csc(Nc3nnc(Nc4ccccc4)s3)n2)cc1 | 300 | 300 | inactive | 300 | inactive | inactive |  |  |  |  |  |  |  |  |  |  |  |  |  | 
Cc1ccc(Nc2nnc(Nc3nc(-c4ccc([N+](=O)[O-])cc4)cs3)s2)cc1 |  |  |  | 30 | inactive |  | 0.9 | 300 | 232 | 300 | 216 | 300 | 100 | 19.1 | Toxic | Toxic | Toxic | 11.3 |  | 
Cc1ccc(Nc2nnc(Nc3nc(-c4ccc(Cl)cc4)cs3)s2)cc1 |  |  |  | 300 |  | inactive |  | 300 |  | 300 |  |  | 100 |  |  |  |  |  | 300 | 
COc1ccc(Nc2nnc(Nc3nc(-c4ccc(Cl)cc4)cs3)s2)cc1 |  |  |  | 100 |  |  |  | 300 |  | 300 |  | 100 | 300 |  |  |  |  |  | 300 | 
COc1ccc(Nc2nnc(Nc3nc(-c4ccc([N+](=O)[O-])cc4)cs3)s2)cc1 |  |  |  | 30 |  | inactive | 1.2 | 300 | 433 | 300 | 550 |  | 30 | 12.6 | Toxic | Toxic | Toxic | 43.6 | 100 | 
Cc1ccccc1Nc1nnc(Nc2nc(-c3ccccc3)cs2)s1 | 300 |  | inactive | 300 | inactive | inactive |  |  |  | 300 |  |  |  |  |  |  |  |  |  | 
CCC1(c2ccccc2)C(=O)NC(=O)NC1=O [PHENOBARBITAL] | 300 | 100 |  | 100 | inactive | inactive |  |  | 13.2 |  |  |  | 30 | 21.8 |  |  |  |  |  | 
c1ccc(Nc2nnc(Nc3nc(-c4ccccc4)cs3)s2)cc1 | 300 |  | inactive | 300 |  | inactive |  |  |  | 300 |  |  |  |  |  |  |  |  | 100 | 
Clc1ccc(-c2csc(Nc3nnc(Nc4ccccc4)s3)n2)cc1 |  |  |  |  | inactive | inactive |  | 300 |  | 300 |  |  | 300 |  |  |  |  |  |  | inactive
O=C1NC(=O)C(c2ccccc2)(c2ccccc2)N1 [PHENYTOIN] | 100 | 100 |  | 30 | inactive | inactive |  |  | > 300 |  |  |  | 30 |  |  |  |  |  |  | 
COc1ccc(Nc2nnc(Nc3nc(-c4ccccc4)cs3)s2)cc1 |  | 300 |  | 100 |  | inactive |  | 300 |  |  |  |  | 100 |  |  |  |  |  | 300 | 
Cc1ccccc1Nc1nnc(Nc2nc(-c3ccc(Br)cc3)cs2)s1 |  | 100 |  | 300 |  | inactive |  | 300 |  |  |  |  | 300 |  |  |  |  |  | 300 | 
CCCC(CCC)C(=O)O [VALPROIC ACID] |  |  |  |  |  |  |  |  | 149 |  |  |  |  |  |  |  |  |  |  | 
COc1ccccc1Nc1nnc(Nc2nc(-c3ccc(Br)cc3)cs2)s1 | 100 | 300 | inactive | 300 |  | inactive |  |  |  |  |  |  |  |  |  |  |  |  | 300 | 
COc1ccc(Nc2nnc(Nc3nc(-c4ccc(Br)cc4)cs3)s2)cc1 |  |  |  | 30 | inactive |  | 8.9 | 300 | 79.4 | 300 | 713 | 100 | 100 | 27.6 | Toxic | Toxic | Toxic | 25.8 |  | 
COc1ccccc1Nc1nnc(Nc2nc(-c3ccc(Cl)cc3)cs2)s1 | 300 | 300 |  |  |  | inactive |  |  |  |  |  |  | 300 |  |  |  |  |  | 100 | inactive
Cc1ccc(Nc2nnc(Nc3nc(-c4ccc(Br)cc4)cs3)s2)cc1 | 300 | 300 |  | 100 |  |  |  |  |  |  |  | 300 | 100 |  |  |  |  |  | 300 | 
COc1ccccc1Nc1nnc(Nc2nc(-c3ccccc3)cs2)s1 |  |  |  | 100 |  |  |  | 300 |  | 300 |  | 100 | 300 |  |  |  |  |  | 300 | 
Cc1ccc(Nc2nnc(Nc3nc(-c4ccccc4)cs3)s2)cc1 |  |  |  | 100 | inactive |  |  | 300 |  | 300 |  | 300 | 100 |  |  |  |  |  |  | 
Cc1ccccc1Nc1nnc(Nc2nc(-c3ccc(Cl)cc3)cs2)s1 |  |  |  | 300 | inactive | inactive |  | 300 |  | 300 |  |  | 300 |  |  |  |  |  |  | 
Cc1ccccc1Nc1nnc(Nc2nc(-c3ccc([N+](=O)[O-])cc3)cs2)s1 | 300 | 100 |  | 100 |  | inactive |  |  |  |  |  |  | 100 |  |  |  |  |  | 300 | 
O=[N+]([O-])c1ccc(-c2csc(Nc3nnc(Nc4ccccc4)s3)n2)cc1 |  | 100 | inactive | 100 | inactive | inactive |  | 300 |  |  |  |  |  |  |  |  |  |  |  | 
CCC1(C)CC(=O)NC1=O (stereo unspecified) [ETHOSUXIMIDE] |  |  | inactive |  |  |  | <0.2 | 300 | > 100 | 300 | 71.6 | 100 |  | 8.8 |  |  |  | 8.1 | 300 | inactive
COc1ccccc1Nc1nnc(Nc2nc(-c3ccc([N+](=O)[O-])cc3)cs2)s1 |  | 300 |  | 300 |  | inactive |  | 300 |  |  |  |  | 300 |  |  |  |  |  | 300 | 
